SMILES strings stand for the structures.

In one data set the test system is male NIH Swiss mice. The experiment in a line: Acute effects of apelin analogues on voluntary food intake. Type of data set: in vivo. The note with it: 25 nmol/kg i.p., 150 min, FIG. 39. The method, then:
Saline and peptide analogues were administered by intraperitoneal injection and cumulative food intake was monitored at 30, 60, 90 and 120 min after feeding.
Mice were habituated to a daily feeding regime of 3 h/day by progressively reducing the daily feeding period over 3 weeks. This was performed to ensure mice consumed entire daily food intake within 3 h, thereby allowing “peptide” effects to be measured over the known eating period of mice. On days 1 to 7, mice were supplied with food from 10:00 h to 20:00 h, on days 8 to 14, food was presented from 10:00 h to 19:00 h and on days 15 to 21, food was restricted to the 3 h interval from 10:00 h to 13:00 h. This regime was continued throughout the experimental period.
Mice that were habituated to a 3 h daily feeding regime were administered with an i.p. injection of saline (0.9% w/v NaCl) or apelin peptide (1-100 nmol/kg bw) at 10:00 h (n=8). Immediately following injection, food was initially weighed and then presented to the mice and subsequently weighed at 30 min intervals up to 180 min.

Data set [1] deals with high fat fed NIH Swiss mice. The experiment in a line: 28 day long-term study, twice daily i.p. administration. Conditions: for Percentage fat mass compared to high-fat fed controls: DEXA; for Glucose tolerance and plasma insulin excursion following an i.p. and oral glucose load: after the 28 day treatment period. The class given is in vivo. The source says: NIH Swiss mice (Harlan UK Ltd., Blackthorne, UK) were derived from a nucleus colony obtained from the National Institute of Health, Bethesda, Md., USA. One group of mice were maintained on a standard rodent diet (10% fat, 30% protein, 60% carbohydrate; percent of total energy 12.99 kJ/g, Trouw Nutrition, Cheshire, UK) and used as a model of normal glycaemia. Other NIH Swiss mice were maintained on a high fat diet (45% fat, 20% protein, 35% carbohydrate; percent of total energy 26.15 […], UK) from 8 weeks of age for 150 days to produce a model of diet induced obesity-diabetes. […] Drinking water and diet were freely available. All animal studies were performed in accordance with the UK Animals (Scientific Procedures) Act 1986. […] Following the run-in period, normal control (n=8) and high-fat fed mice (n=8) received twice daily (09:00 and 17:00 h) i.p. administration of saline vehicle (0.9% NaCl (w/v)) for 28 days. […] Blood samples for glucose and plasma insulin measurement were collected at intervals throughout the study from the cut tail vein of conscious mice. […] Glucose was measured using an Ascensia Contour meter and blood was collected and processed for plasma insulin analysis by radioimmunoassay. Body weight and fat mass was also assessed using the PIXImus DEXA scanner whilst energy expenditure, intake, food intake and feeding bouts were assessed using the CLAMS metabolic chamber. HbA1c was analysed post 28 days using Bayer A1C Now^+ Multi Test meter. Lipid profile test was obtained by using the iLab analyser. Cholesterol, triglyceride and HDL-cholesterol levels were measured, in plasma (3 μl), using the iLab analyser. LDL-cholesterol levels were obtained using the Friedewald equation=total cholesterol-HDL-(triglycerides/3).

Data set [2] can be described thus: Degradation of apelin peptides by plasma from fasted normal NIH Swiss mice (rp-HPLC, MALDI-TOF MS). The note with it: for half-life at 263 µg/mL / remaining at 4 h, 263 µg/mL: NIH Swiss, mouse, plasma, pH 7.4. The class given is in vitro ADME. The method, then:
Degradation of Apelin Peptides by Plasma from Fasted Normal NIH Swiss Mice […] The enzymatic reaction was stopped by adding 50 μl of 10% TFA (0.1% v/v; Sigma-Aldrich Ltd, (Poole, Dorset, UK) and frozen at -20° C. until separation. The terminated reaction products were then applied to an analytical Vydac C-8 column (4.6×150 mm; Phenomenex, Macclesfield, Cheshire, UK) for rp-HPLC analysis. The absorbance was monitored at 214 nm using a […] UV 2000 detector (Thermoquest Limited, Manchester, UK) and the traces were recorded by Thermo Electron ChromQuest data collection software (version 4). HPLC peak fractions were collected manually and subjected to MALDI-TOF mass spectrometry for peptide identification. Degradation profile of various apelin-13 related analogues: plasma incubations (4 h) were separated on a Vydac C-8 analytical HPLC column and all peaks were collected prior to analysis by MALDI-TOF mass spectrometry. Degradation fragments, actual molecular weights (Mr) and retention times (RT) are shown. Theoretical molecular weights of each fragment are shown in brackets. […] Degradation fragments, theoretical molecular weights (Mr) and retention times (RT) are shown. Theoretical molecular weights of each fragment are shown in brackets.

Data set [3] has as its system NIH Swiss mice fed a high-fat diet for 150 days. The experiment in a line: Acute and delayed i.p. glucose tolerance test, blood glucose and plasma insulin. Type of data set: in vivo. As for the experimental part: Plasma glucose and plasma insulin concentrations were measured prior to and after i.p. administration of glucose alone (18 mmol/kg body weight), or in combination with apelin analogues (25 nmol/kg body weight) in 18 h fasted mice fed a high-fat diet for 150 days. Values represent mean±SEM for eight mice (n=8). *P<0.05, **P<0.01 and ***P<0.001 compared to glucose alone. FIG. 6 illustrates effect of i.p. administration of glucose alone (18 mmol/kg body weight), ([…])apelin-13 and ([…])apelin-13 alone or in combination (each 25 nmol/kg body weight) on (A) blood glucose and (B) plasma insulin in 18 h fasted mice fed a high-fat diet for 150 days. Values represent mean±SEM for eight mice (n=8). *p<0.05 and **p<0.01 compared to glucose alone, ^+P<0.05 compared to ([…])apelin-13, ^∇P<0.05 and ^∇∇P<0.01 compared to ([…])apelin-13. FIG. 10 illustrates tests conducted 2 h after administration of apelin related analogues (25 nmol/kg body wt) in 18 h fasted mice fed a high-fat diet for 150 days. (A) Blood glucose and (B) plasma insulin was measured before and after i.p. administration of glucose (18 mmol/kg body wt) alone or in combination with apelin analogues. Values represent mean±SEM for eight mice (n=8). *P<0.05 and **P<0.01 compared to glucose alone. FIG. 11 illustrates tests conducted 8 h after administration of apelin related analogues (25 nmol/kg body wt) in 18 h fasted mice fed a high-fat diet for 150 days. (A) Blood glucose and (B) plasma insulin was measured before and after i.p. administration of glucose (18 mmol/kg body wt) alone or in combination with apelin analogues. Values represent mean±SEM for eight mice (n=8). *P<0.05 and **P<0.01 compared to glucose alone. FIG. 12 illustrates acute effects of fatty acid modified apelin analogues on glucose-lowering and insulin release in high fat fed Swiss NIH mice with dietary-induced diabetes. (A) Blood glucose and (B) plasma insulin concentrations were measured prior to and after i.p. administration of glucose alone (18 mmol/kg body weight), or in combination with apelin analogues (25 nmol/kg body weight) in 18 h fasted mice fed a high-fat diet for 150 days. Values represent mean±SEM for eight mice (n=8). *P<0.05, compared to glucose alone. FIG. 13 illustrates tests conducted 16 h after administration of fatty acid apelin analogues (25 nmol/kg body wt) in mice fed a high-fat diet for 150 days. (A) Blood glucose and (B) plasma insulin was measured before and after i.p. administration of glucose (18 mmol/kg body wt) alone or in combination with apelin analogues. Values represent mean±SEM for eight mice (n=8). *P<0.05, **P<0.01 and ***P<0.001 compared to glucose alone. NIH Swiss mice (Harlan UK Ltd., Blackthorne, UK) were derived from a nucleus colony obtained from the National Institute of Health, Bethesda, Md., USA. One group of mice were maintained on a standard rodent diet (10% fat, 30% protein, 60% carbohydrate; percent of total energy 12.99 kJ/g, Trouw Nutrition, Cheshire, UK) and used as a model of normal glycaemia. Other NIH Swiss mice were maintained on a high fat diet (45% fat, 20% protein, 35% carbohydrate; percent of total energy 26.15 […], UK) from 8 weeks of age for 150 days to produce a model of diet induced obesity-diabetes. […] All mice were housed in an air-conditioned room maintained at 22±2° C. with a 12 h light: 12 h dark cycle (08:00-20:00 h), were singly caged, and selected for experimental groups according to body weight and non-fasted blood glucose. Drinking water and diet were freely available. All animal studies were performed in accordance with the UK Animals (Scientific Procedures) Act 1986. For acute in vivo studies, blood samples were collected from the cut tip of the tail vain of fasted, conscious mice into fluoride/heparin coated glucose microcentrifuge tubes (Sarstedt, Germany) immediately prior to (t=0) and at 15, 30, 60 and 105 min following i.p. injection of glucose ([…]).

[4] abbreviates: twice daily 25 nmol/kg bw, 28 days.
Setting [5] is: acute, peptide 25 nmol/kg i.p. with glucose 18 mmol/kg, Table 4.
The mark [6] stands for this setting: following a 2 h delay, 25 nmol/kg.
The mark [7] stands for this setting: following a 8 h delay, 25 nmol/kg.
[8] abbreviates: acute, alone and in combination, each 25 nmol/kg i.p. with glucose, Table 5.

Turning to `CCCCCCCCCCCCCCCC(=O)N[C@@H](CCC(=O)NCCCC[C@H](NC(=O)[C@H](Cc1c[nH]cn1)NC(=O)[C@H](CO)NC(=O)[C@H](CC(C)C)NC(=O)[C@H](CCCNC(=N)N)NC(=O)[C@@H]1CCCN1C(=O)[C@H](CCCNC(=N)N)NC(=O)[C@@H](N)CCC(N)=O)C(=O)NCC(=O)N1CCC[C@H]1C(=O)N[C@@H](CCSC)C(=O)N1CCC[C@H]1C(=O)N[C@H](C(=O)O)C(C)C)C(=O)O` [Lys^8GluPAL(Val^13)apelin-13], the “Increase of food intake, maximal, compared to saline treated control” value with male NIH Swiss mice was 9.2%.
Consider `CSCC[C@H](NC(=O)[C@@H]1CCCN1C(=O)CNC(=O)[C@H](CCCCN)NC(=O)[C@H](Cc1c[nH]cn1)NC(=O)[C@H](CO)NC(=O)[C@H](CC(C)C)NC(=O)[C@H](CCCNC(=N)N)NC(=O)[C@@H]1CCCN1C(=O)[C@H](CCCNC(=N)N)NC(=O)[C@@H]1CCC(=O)N1)C(=O)N1CCC[C@H]1C(=O)N[C@@H](Cc1ccccc1)C(N)=O` [(pGlu)apelin-13-amide], for which, in data set [1] (after 28 days), the “Glycated haemoglobin (HbA1c) in comparison to high-fat fed saline treated controls” value is recorded as “reduction” and the “Percentage fat mass compared to high-fat fed controls” value is recorded as “significantly reduced”. Besides, in data set [1] (after 28 days, insulin 25 U/kg bw), the Insulin sensitivity entry is recorded as “significantly improved”. Besides, the “Glucose tolerance and plasma insulin excursion following an i.p. and oral glucose load” value in data set [1] is recorded as “significantly improved”. In addition, in data set [1] (setting [4]), the “Day of study at which bodyweight was significantly decreased” value is around 20 days; the “Day of study at which circulating blood glucose began to be significantly reduced and plasma insulin increased” value worked out at 10 days; the Food intake entry was “significantly reduced food intake”; the “Non-fasting plasma insulin levels” value is given as “significant increase”. In data set [2], the “Degradation fragment, Peak 1” value is “amide (1-5)”; the “Degradation fragment, Peak 2” value is recorded as “amide (1-12)”; the “Rank order of stability” value was determined as 7; the half-life at 263 µg/mL is 10.4 h. The fraction remaining at 4 h, 263 µg/mL in data set [2] is 85 ± 1.3%. Also, the “Rank order on basis of anti-hyperglycaemic efficacy” value (“Rank order on basis” for short) in data set [3] (acute, Table 4) turned out to be 1. In addition, in data set [3] (setting [5]), the “Blood glucose as percent of glucose-alone control (lower = stronger glucose lowering)” value is recorded as 57% (**) and the “Insulin secretion, where glucose alone = 100%” value is 159% (***). Moreover, the “Rank order on basis” value in data set [3] (following a 2 h delay) was 1. Also, in data set [3] (setting [6]), the “Blood glucose as percent of glucose-alone control (lower = stronger glucose lowering)” value is on record as 67% (**) and the “Insulin secretion, where glucose alone = 100%” value is 146% (***). For the same compound, the “Rank order on basis” value in data set [3] (following a 8 h delay) was 1. Further, in data set [3] (setting [7]), the “Blood glucose as percent of glucose-alone control (lower = stronger glucose lowering)” value was 79% (*) and the “Insulin secretion, where glucose alone = 100%” value is given as 120% (*). Also, in data set [3] (glucose lowering, high-fat fed mice), the “Time after injection up to which efficacy is retained” value is reported as “up to 8 h”.
For `CSCC[C@H](NC(=O)[C@@H]1CCCN1C(=O)CNC(=O)[C@H](CCCCN)NC(=O)[C@H](Cc1c[nH]cn1)NC(=O)[C@H](CO)NC(=O)[C@H](CC(C)C)NC(=O)[C@H](CCCNC(=N)N)NC(=O)[C@@H]1CCCN1C(=O)[C@H](CCCNC(=N)N)NC(=O)[C@@H](N)CCC(N)=O)C(=O)N1CCC[C@H]1C(=O)N[C@@H](Cc1ccccc1)C(N)=O` [Apelin-13-amide], the “Percentage fat mass compared to high-fat fed controls” value in data set [1] (after 28 days) is given as “failed to reach significance”. For the same compound, the “Glucose tolerance and plasma insulin excursion following an i.p. and oral glucose load” value in data set [1] was “significantly improved”. The “Day of study at which bodyweight was significantly decreased” value in data set [1] (setting [4]) was around 20 days. Besides, in data set [2], the “Degradation fragment, Peak 1” value was “Apelin-13-amide (1-12)”; the “Rank order of stability” value was 5; the half-life at 263 µg/mL is 11.4 h; the fraction remaining at 4 h, 263 µg/mL was found to be 80.4 ± 1.9%. Moreover, in data set [3] (acute, Table 4), the “Rank order on basis” value is on record as 2. Further, in data set [3] (setting [8]), the “Glucose lowering, where glucose alone = 100%” value was 65% (**) and the “Insulin secretion, where glucose alone = 100%” value is listed as 153% (***). Moreover, in data set [3] (setting [5]), the “Blood glucose as percent of glucose-alone control (lower = stronger glucose lowering)” value is given as 65% (**) and the “Insulin secretion, where glucose alone = 100%” value is listed as 153% (***). For the same compound, in data set [3] (following a 2 h delay), the “Rank order on basis” value is reported as 2. In addition, in data set [3] (setting [6]), the “Blood glucose as percent of glucose-alone control (lower = stronger glucose lowering)” value was 73% (**) and the “Insulin secretion, where glucose alone = 100%” value is 142% (**). Further, in data set [3] (following a 8 h delay), the “Rank order on basis” value came out at 3. Further, in data set [3] (setting [7]), the “Blood glucose as percent of glucose-alone control (lower = stronger glucose lowering)” value amounted to 88% ^ and the “Insulin secretion, where glucose alone = 100%” value is 106%.

By half-life is commonly meant the time in which the quantity being followed falls by half. The term amount remaining denotes what is left of the initial amount, in per cent.

(Values after patent US10118954B2, “Apelin analogues” (University of Ulster, priority 2014, dated 2018).)
